Literature values, collected in US11554095B1, “Mitomycin-C bladder instillation syringe kit” (Edge Pharma, LLC, priority 2019, dated 2023).

Assays:
[1] = urine

In the case of `CO[C@@]12[C@H](COC(N)=O)C3=C(C(=O)C(C)=C(N)C3=O)N1C[C@@H]1N[C@@H]12` [MMC, Mitomycin-C], the “decrease in MMC concentrations” value ([1]; pH 5, after 2 hours) is listed as 44%, the “loss of MMC” value ([1]; pH 7, after 2 hours) is listed as “less than 4%” and the “pH of solution in water” value (5 mg/mL solution in water) is listed as 6.0-7.5. For the same compound, the “pH of saturated solution” value (saturated solution) was 5.0-9.0.
